ChEMBL document CHEMBL6074680, “Structure-Based Discovery of a Series of Covalent, Orally Bioavailable, and Selective BFL1 Inhibitors” (J Med Chem, 2024)

Assays:
[1] = Lipophilicity, log D of compound in 1-octanol at pH 7.4 incubated for 4 hrs by HPLC-UV analysis; format: physicochemical; conditions: 1-octanol / aqueous phase at pH 7.4, pH 7.4
BCL2A1/BID = molecular target: T1, BCL2A1/BID (Homo sapiens, UniProt Q16548); test: Inhibition of BFL-1/ BH3 (unknown origin) interaction incubated for 2 hrs by TR-FRET assay; format: protein assay
T1 sequence (Q16548 whole entry): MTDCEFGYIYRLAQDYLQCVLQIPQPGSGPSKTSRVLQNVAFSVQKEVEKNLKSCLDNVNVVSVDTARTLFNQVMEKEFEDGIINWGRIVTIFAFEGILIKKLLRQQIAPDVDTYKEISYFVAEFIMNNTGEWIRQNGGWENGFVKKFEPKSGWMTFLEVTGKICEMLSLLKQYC
T1 sequence (P55957 whole entry): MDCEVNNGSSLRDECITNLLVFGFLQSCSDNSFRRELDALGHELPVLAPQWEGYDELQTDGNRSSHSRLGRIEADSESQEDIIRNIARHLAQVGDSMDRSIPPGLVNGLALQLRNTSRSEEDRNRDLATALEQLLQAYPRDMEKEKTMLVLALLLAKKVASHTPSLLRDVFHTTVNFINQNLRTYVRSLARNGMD

[2] = Metabolic stability in human liver microsome assessed as intrinsic clearance; format: ADME; conditions: human liver microsomes, read-out: CLH
[3] = Metabolic stability in rat hepatocytes assessed as intrinsic clearance measured per 10^6 cells; format: ADME, cell-based, Hepatocyte
[4] = GSH reactivity in PBS buffer at pH 7.4 assessed as half life by LC-UV/MS analysis; format: physicochemical
SU-DHL-1 [5] = test: Induction of apoptosis in human SU-DHL-1 cells assessed as caspase activation in presence of AZD5991 incubated for 6 hrs by caspaseGlo 3/7 reagent based assay; format: functional, cell-based; conditions: SU-DHL-1, 6 h
Bcl-2-like protein 1 = Bcl-2-like protein 1 (Homo sapiens, UniProt Q07817); test: Inhibition of Bcl-Xl (unknown origin) by FRET assay
SU-DHL-1 [6] = test: Antiproliferative activity against human SU-DHL-1 cells assessed as cell viability incubated for 24 hrs by celltiter-glo assay; format: functional, cell-based; conditions: SU-DHL-1, 24 h
[7] = Metabolic stability in mouse hepatocytes assessed as intrinsic clearance measured per 10^6 cells; format: ADME, cell-based, Hepatocyte; conditions: read-out: CLH
[8] = Oral bioavailability in CD-1 mouse at 1 mg/kg or 0.5 mg/kg measured upto 24 hrs by LC-MS/MS analysis; format: ADME, organism-based; conditions: in vivo
[9] = Volume of distribution at steady state in CD-1 mouse at 1 mg/kg, po or 0.5 mg/kg, iv measured upto 24 hrs by LC-MS/MS analysis; format: ADME, organism-based; conditions: in vivo
[10] = Half life in CD-1 mouse at 1 mg/kg, po or 0.5 mg/kg, iv measured upto 24 hrs by LC-MS/MS analysis; format: ADME, organism-based; conditions: in vivo
[11] = Metabolic stability in human hepatocytes assessed as intrinsic clearance measured per 10^6 cells; format: ADME, cell-based, Hepatocyte; conditions: read-out: CLH
[12] = Plasma protein binding in mouse assessed as unbound fraction; format: ADME, cell-free
[13] = AUC in CD-1 mouse at 1 mg/kg, po or 0.5 mg/kg, iv measured upto 24 hrs by LC-MS/MS analysis; format: ADME, organism-based; conditions: in vivo
[14] = molecular target: Apoptosis regulator Bcl-2 (Homo sapiens, UniProt P10415); test: Inhibition of BCL2 (unknown origin) by FRET assay
[15] = Apparent permeability across apical to basolateral side in human Caco-2 cells measured upto 120 mins by LC-MS/MS analysis; format: ADME, cell-based
[16] = Cmax in CD-1 mouse at 1 mg/kg, po or 0.5 mg/kg, iv measured upto 24 hrs by LC-MS/MS analysis; format: ADME, organism-based; conditions: in vivo
[17] = molecular target: Induced myeloid leukemia cell differentiation protein Mcl-1 (Homo sapiens, UniProt Q07820); test: Inhibition of MCL1 (unknown origin) by FRET assay
Sequence of Induced myeloid leukemia cell differentiation protein Mcl-1 (Q07820 whole entry): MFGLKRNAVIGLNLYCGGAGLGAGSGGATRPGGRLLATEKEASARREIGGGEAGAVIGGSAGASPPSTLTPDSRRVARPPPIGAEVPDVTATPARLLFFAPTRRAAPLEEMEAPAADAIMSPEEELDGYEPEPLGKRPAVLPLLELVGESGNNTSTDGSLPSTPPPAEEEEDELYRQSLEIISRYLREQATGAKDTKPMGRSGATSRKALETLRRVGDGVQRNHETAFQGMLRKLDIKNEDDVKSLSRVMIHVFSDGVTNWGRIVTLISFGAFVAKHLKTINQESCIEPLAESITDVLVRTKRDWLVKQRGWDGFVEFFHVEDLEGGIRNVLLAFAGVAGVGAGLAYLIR

Sequence of Bcl-2-like protein 1 (Q07817 whole entry): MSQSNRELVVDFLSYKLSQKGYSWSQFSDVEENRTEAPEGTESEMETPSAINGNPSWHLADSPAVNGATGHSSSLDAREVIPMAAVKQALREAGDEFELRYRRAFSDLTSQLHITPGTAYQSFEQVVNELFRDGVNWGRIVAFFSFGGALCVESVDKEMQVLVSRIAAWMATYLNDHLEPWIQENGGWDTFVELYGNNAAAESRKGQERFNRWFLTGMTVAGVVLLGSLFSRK
Sequence of Apoptosis regulator Bcl-2 (P10415 whole entry): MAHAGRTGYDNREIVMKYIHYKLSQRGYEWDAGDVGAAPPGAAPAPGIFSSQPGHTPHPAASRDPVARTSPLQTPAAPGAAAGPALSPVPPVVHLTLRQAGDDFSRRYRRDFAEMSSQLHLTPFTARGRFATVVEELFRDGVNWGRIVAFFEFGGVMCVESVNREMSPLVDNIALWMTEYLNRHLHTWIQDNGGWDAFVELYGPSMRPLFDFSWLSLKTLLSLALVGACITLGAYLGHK

logD at 4 h [1] | IC50 (BCL2A1/BID) [nM] | EC50 (SU-DHL-1 [5]) [nM] | hepatocyte CLint ([3]; rat hepatocytes, read-out: CLH) [µL/min/1e6 cells] | Structure (SMILES) | further results
2.4 | 1000 | – | – | C=C(Cl)C(=O)N(Cc1ccc(C(F)(F)F)cc1)c1ccc(O[C@@H]2CC[C@@H](N)C2)cc1 (racemic) | microsomal CLint [2]: 7.8 µL/min/mg; hepatocyte CLint ([3]; hepatocytes): 52 µL/min/1e6 cells; half-life [4]: 1.42 h
– | 240 | – | – | CN1CCC[C@@H]1/C=C/C(=O)N(Cc1ccc(Cl)cc1)c1ccc(O[C@@H]2CC[C@@H](N)C2)cc1 | –
– | 74 | 610 | – | C=CC(=O)N(c1ccc(O[C@@H]2CC[C@@H](NC(=O)CCCN(C)C)C2)cc1)[C@@H](C)c1ccc(Cl)cc1 | –
4.2 | 5.4 | 38 | 55 | C=CC(=O)N(c1ccc(O[C@@H]2CC[C@@H](NC(=O)N[C@@H]3CCS(=O)(=O)C3)C2)c(Cl)c1)[C@@H](C)c1ccc(Cl)cc1 | IC50 (Bcl-2-like protein 1): > 30000 nM; EC50 (SU-DHL-1 [6]): 48 nM; hepatocyte CLint [7]: 42 µL/min/1e6 cells; bioavailability [8]: 16%; Vdss [9]: 4.1 L/kg; half-life [10]: 0.75 h; hepatocyte CLint [11]: 11 µL/min/1e6 cells; fraction unbound [12]: 0.013; AUC at 24 h [13]: 0.036 µM·h; IC50 [14]: > 30000 nM; Papp A→B at 2 h [15]: 16 ×10⁻⁶ cm/s; Cmax [16]: 15 nM
– | 77 | 650 | – | C=CC(=O)N(c1ccc(O[C@@H]2CC[C@@H](N)C2)c(C)c1)[C@@H](C)c1ccc(Cl)cc1 | –
– | 29 | 3100 | – | C=CC(=O)N(c1ccc(O[C@@H]2CC[C@@H](NC(=O)N[C@H]3CCNC3)C2)cc1)[C@@H](C)c1ccc(Cl)cc1 | IC50 [17]: > 100000 nM
3.2 | 87 | 910 | 262 | C=CC(=O)N(c1ccc(O[C@@H]2CC[C@@H](NC(=O)N[C@@H]3CCS(=O)(=O)C3)C2)c(F)c1)[C@@H](C)c1ccc(C(F)(F)F)c(C#N)c1 | –
3.7 | 8.5 | 83 | 59 | C=CC(=O)N(c1ccc(O[C@@H]2CC[C@@H](NC(=O)N[C@@H]3CCS(=O)(=O)C3)C2)c(F)c1)[C@@H](C)c1ccc(Cl)cc1 | IC50 (Bcl-2-like protein 1): > 30000 nM; EC50 (SU-DHL-1 [6]): 190 nM; hepatocyte CLint [7]: 69 µL/min/1e6 cells; bioavailability [8]: 37%; Vdss [9]: 4 L/kg; half-life [10]: 3.1 h; hepatocyte CLint [11]: 7.4 µL/min/1e6 cells; fraction unbound [12]: 0.027; AUC at 24 h [13]: 0.19 µM·h; IC50 [14]: > 30000 nM; Papp A→B at 2 h [15]: < 11 ×10⁻⁶ cm/s; Cmax [16]: 53 nM
1.5 | 11 | 42 | 7.3 | C=CC(=O)N(c1ccc(O[C@@H]2CC[C@@H](N)C2)c(F)c1)[C@@H](CC(C)(C)O)c1ccc(Cl)cc1 | EC50 (SU-DHL-1 [6]): 58 nM; hepatocyte CLint [7]: 15 µL/min/1e6 cells; hepatocyte CLint [11]: 5.9 µL/min/1e6 cells
2.2 | 5 | 79 | 74 | C=CC(=O)N(c1ccc(O[C@@H]2CC[C@@H](NC(=O)N[C@@H]3CCS(=O)(=O)C3)C2)c(F)c1)[C@@H](CC(N)=O)c1ccc(Cl)cc1 | hepatocyte CLint [7]: 45 µL/min/1e6 cells; hepatocyte CLint [11]: 25 µL/min/1e6 cells
– | 18 | 140 | – | C=CC(=O)N(c1ccc(O[C@@H]2CC[C@@H](N)C2)cc1)[C@@H](C[C@H](C)O)c1ccc(Cl)cc1 | EC50 (SU-DHL-1 [6]): 170 nM
– | 43 | 490 | – | C=CC(=O)N(c1ccc(O[C@@H]2CC[C@@H](N)C2)cc1)[C@@H](CC(N)=O)c1ccc(Cl)cc1 | IC50 [17]: > 100000 nM
– | 50 | 500 | – | C=CC(=O)N(c1ccc(O[C@@H]2CC[C@@H](NC(=O)NCCN(C)C)C2)cc1)[C@@H](C)c1ccc(Cl)cc1 | –
– | 14 | 120 | – | C=CC(=O)N(c1ccc(O[C@@H]2CC[C@@H](N)C2)c(C#N)c1)[C@@H](C)c1ccc(Cl)cc1 | –
2.8 | 3.9 | 30 | 14 | C=CC(=O)N(c1ccc(O[C@@H]2CC[C@@H](NC(=O)NCC(C)(C)N(C)C)C2)c(F)c1)[C@@H](C)c1ccc(Cl)cc1 | EC50 (SU-DHL-1 [6]): 87 nM; hepatocyte CLint [7]: 73 µL/min/1e6 cells; hepatocyte CLint [11]: 6.1 µL/min/1e6 cells
– | – | 1100 | – | C=CC(=O)N(c1ccc(O[C@@H]2CC[C@@H](N)C2)cc1)[C@@H](C)c1ccc(Cl)cc1 | –
– | 90 | – | – | C[C@@H](c1ccc(Cl)cc1)N(C(=O)/C=C/CN(C)C)c1ccc(O[C@@H]2CC[C@@H](N)C2)cc1 | –

Structure (SMILES) | logD at 4 h [1] | IC50 (BCL2A1/BID) [nM] | EC50 (SU-DHL-1 [5]) [nM] | hepatocyte CLint ([3]; rat hepatocytes, read-out: CLH) [µL/min/1e6 cells] | further results
C=CC(=O)N(c1cc(F)c(O[C@@H]2CC[C@@H](N)C2)cc1C)[C@@H](C)c1ccc(Cl)cc1 | 2.7 | 31 | 530 | – | microsomal CLint [2]: 9.4 µL/min/mg; hepatocyte CLint ([3]; hepatocytes): 12 µL/min/1e6 cells; half-life [4]: 4.47 h
